Measured values taken from PubChem BioAssay (NCI).
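The compound was tested at five concentrations on cells cultured in 96-well plates, with a 48-hour exposure period. GI50 = concentration required for 50% inhibition of growth. Definition used: TGI = concentration required for complete inhibition of growth.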

How the values were obtained:
Assay in all cases: growth of human tumour cells (NCI), 48 h
MDA-MB-435 = tested on: MDA-MB-435
SNB-19 CNS = tested on: SNB-19 CNS
SW-620 colon = tested on: SW-620 colon
OVCAR-4 ovarian = tested on: OVCAR-4 ovarian
NCI-H522 lung = tested on: NCI-H522 lung
MALME-3M melanoma = tested on: MALME-3M melanoma
COLO 205 colon = tested on: COLO 205 colon
A498 renal = tested on: A498 renal
SK-MEL-5 melanoma = tested on: SK-MEL-5 melanoma
UACC-257 melanoma = tested on: UACC-257 melanoma
UO-31 renal = tested on: UO-31 renal
CAKI-1 renal = tested on: CAKI-1 renal
SF-539 CNS = tested on: SF-539 CNS
MOLT-4 leukemia = tested on: MOLT-4 leukemia
OVCAR-3 ovarian = tested on: OVCAR-3 ovarian
HS 578T breast = tested on: HS 578T breast
MCF7 breast = tested on: MCF7 breast
HOP-92 NSCLC = tested on: HOP-92 NSCLC
RXF 393 renal = tested on: RXF 393 renal
EKVX NSCLC = tested on: EKVX NSCLC
KM12 colon = tested on: KM12 colon
SK-MEL-2 melanoma = tested on: SK-MEL-2 melanoma
HCT-116 colon = tested on: HCT-116 colon
BT-549 breast = tested on: BT-549 breast
HCC-2998 colon = tested on: HCC-2998 colon
M14 melanoma = tested on: M14 melanoma
SK-MEL-28 melanoma = tested on: SK-MEL-28 melanoma
NCI-H460 lung = tested on: NCI-H460 lung
DU-145 prostate = tested on: DU-145 prostate
CCRF-CEM leukemia = tested on: CCRF-CEM leukemia
HL-60(TB) leukemia = tested on: HL-60(TB) leukemia
SN12C renal = tested on: SN12C renal
HT29 colon = tested on: HT29 colon
SK-OV-3 ovarian = tested on: SK-OV-3 ovarian
MDA-MB-231 breast = tested on: MDA-MB-231 breast
SF-268 CNS = tested on: SF-268 CNS
TK-10 renal = tested on: TK-10 renal
A549 NSCLC = tested on: A549 NSCLC
T-47D breast = tested on: T-47D breast
RPMI-8226 leukemia = tested on: RPMI-8226 leukemia
IGROV1 ovarian = tested on: IGROV1 ovarian
SF-295 CNS = tested on: SF-295 CNS
NCI-H226 lung = tested on: NCI-H226 lung
UACC-62 melanoma = tested on: UACC-62 melanoma
786-0 renal = tested on: 786-0 renal
U251 CNS = tested on: U251 CNS
MDA-MB-468 breast = tested on: MDA-MB-468 breast
NCI-H23 lung = tested on: NCI-H23 lung
HCT-15 colon = tested on: HCT-15 colon
PC-3 prostate = tested on: PC-3 prostate
K-562 leukemia = tested on: K-562 leukemia
ACHN renal = tested on: ACHN renal
NCI/ADR-RES ovarian = tested on: NCI/ADR-RES ovarian
HOP-62 NSCLC = tested on: HOP-62 NSCLC
LOX IMVI melanoma = tested on: LOX IMVI melanoma
OVCAR-8 ovarian = tested on: OVCAR-8 ovarian
SNB-75 CNS = tested on: SNB-75 CNS
OVCAR-5 ovarian = tested on: OVCAR-5 ovarian

For `Cc1cccc(-c2nc(Nc3ccc(C)c(S(N)(=O)=O)c3)c3ccccc3n2)c1`, the GI50 (MDA-MB-435) was 10.5 µM, the TGI (MDA-MB-435) was 67.3 µM and the GI50 (SNB-19 CNS) was 10.5 µM. For the same compound, the TGI (SNB-19 CNS) was 53 µM, the GI50 (SW-620 colon) was 6.44 µM and the TGI (SW-620 colon) was 24 µM. For the same compound, the GI50 (OVCAR-4 ovarian) was 8.5 µM, the TGI (OVCAR-4 ovarian) was > 100 µM and the GI50 (NCI-H522 lung) was 2.72 µM. It also gave a TGI (NCI-H522 lung) of 7.93 µM, a GI50 (MALME-3M melanoma) of 13.9 µM and a TGI (MALME-3M melanoma) of 32.1 µM. It also gave a GI50 (COLO 205 colon) of 7.07 µM, a TGI (COLO 205 colon) of 19.8 µM and a GI50 (A498 renal) of 8.25 µM. The TGI (A498 renal) was 25.8 µM, the GI50 (SK-MEL-5 melanoma) was 11 µM and the TGI (SK-MEL-5 melanoma) was 24.7 µM. The GI50 (UACC-257 melanoma) was 18.3 µM, the TGI (UACC-257 melanoma) was 51.4 µM and the GI50 (UO-31 renal) was 5.57 µM. The TGI (UO-31 renal) was 27.1 µM, the GI50 (CAKI-1 renal) was 5.78 µM and the TGI (CAKI-1 renal) was 21.8 µM. The GI50 (SF-539 CNS) was 7.78 µM, the TGI (SF-539 CNS) was 27 µM and the GI50 (MOLT-4 leukemia) was 3.73 µM. The TGI (MOLT-4 leukemia) was 33.8 µM, the GI50 (OVCAR-3 ovarian) was 9.36 µM and the TGI (OVCAR-3 ovarian) was > 100 µM. The GI50 (HS 578T breast) was 10.4 µM, the TGI (HS 578T breast) was 61.1 µM and the GI50 (MCF7 breast) was 3.16 µM. For the same compound, the TGI (MCF7 breast) was 12.9 µM, the GI50 (HOP-92 NSCLC) was 6.46 µM and the TGI (HOP-92 NSCLC) was 27.2 µM. The GI50 (RXF 393 renal) was 3.3 µM, the TGI (RXF 393 renal) was 11 µM and the GI50 (EKVX NSCLC) was 6.18 µM. For the same compound, the TGI (EKVX NSCLC) was 24.1 µM, the GI50 (KM12 colon) was 3.32 µM and the TGI (KM12 colon) was > 100 µM. For the same compound, the GI50 (SK-MEL-2 melanoma) was 11.4 µM, the TGI (SK-MEL-2 melanoma) was 32.1 µM and the GI50 (HCT-116 colon) was 5.84 µM. For the same compound, the TGI (HCT-116 colon) was 19.6 µM, the GI50 (BT-549 breast) was 15.8 µM and the TGI (BT-549 breast) was 63.5 µM. The GI50 (HCC-2998 colon) was 3.1 µM, the TGI (HCC-2998 colon) was 10.8 µM and the GI50 (M14 melanoma) was 9.55 µM. For the same compound, the TGI (M14 melanoma) was 21.3 µM, the GI50 (SK-MEL-28 melanoma) was 11.4 µM and the TGI (SK-MEL-28 melanoma) was 28.8 µM. It also gave a GI50 (NCI-H460 lung) of 3.94 µM, a TGI (NCI-H460 lung) of 25 µM and a GI50 (DU-145 prostate) of 13.1 µM. It also gave a TGI (DU-145 prostate) of 69.2 µM, a GI50 (CCRF-CEM leukemia) of 4.11 µM and a TGI (CCRF-CEM leukemia) of 25.8 µM. For the same compound, the GI50 (HL-60(TB) leukemia) was 4.67 µM, the TGI (HL-60(TB) leukemia) was 61.5 µM and the GI50 (SN12C renal) was 11.5 µM. It also gave a TGI (SN12C renal) of 28.2 µM, a GI50 (HT29 colon) of 4.67 µM and a TGI (HT29 colon) of 18.8 µM. The GI50 (SK-OV-3 ovarian) was 17.6 µM, the TGI (SK-OV-3 ovarian) was 47.8 µM and the GI50 (MDA-MB-231 breast) was 4.04 µM. The TGI (MDA-MB-231 breast) was 17.5 µM, the GI50 (SF-268 CNS) was 11.8 µM and the TGI (SF-268 CNS) was > 100 µM. The GI50 (TK-10 renal) was 15.3 µM, the TGI (TK-10 renal) was 41.9 µM and the GI50 (A549 NSCLC) was 6.51 µM. The TGI (A549 NSCLC) was 32.8 µM, the GI50 (T-47D breast) was 3.61 µM and the TGI (T-47D breast) was 16.7 µM. It also gave a GI50 (RPMI-8226 leukemia) of 4.38 µM, a TGI (RPMI-8226 leukemia) of 35 µM and a GI50 (IGROV1 ovarian) of 10.3 µM. It also gave a TGI (IGROV1 ovarian) of 32.7 µM, a GI50 (SF-295 CNS) of 2.61 µM and a TGI (SF-295 CNS) of 8.28 µM. The GI50 (NCI-H226 lung) was 11.6 µM, the TGI (NCI-H226 lung) was 35.1 µM and the GI50 (UACC-62 melanoma) was 13.6 µM. The TGI (UACC-62 melanoma) was 30.2 µM, the GI50 (786-0 renal) was 5.68 µM and the TGI (786-0 renal) was 17.8 µM. For the same compound, the GI50 (U251 CNS) was 8.08 µM, the TGI (U251 CNS) was 34.2 µM and the GI50 (MDA-MB-468 breast) was 4.07 µM. For the same compound, the TGI (MDA-MB-468 breast) was 16.5 µM, the GI50 (NCI-H23 lung) was 13.3 µM and the TGI (NCI-H23 lung) was 33.5 µM. It also gave a GI50 (HCT-15 colon) of 3.07 µM, a TGI (HCT-15 colon) of 10.8 µM and a GI50 (PC-3 prostate) of 4.09 µM. It also gave a TGI (PC-3 prostate) of 55.4 µM, a GI50 (K-562 leukemia) of 3.47 µM and a TGI (K-562 leukemia) of 19 µM. The GI50 (ACHN renal) was 4.8 µM, the TGI (ACHN renal) was 21 µM and the GI50 (NCI/ADR-RES ovarian) was 5.6 µM. It also gave a TGI (NCI/ADR-RES ovarian) of 35.9 µM, a GI50 (HOP-62 NSCLC) of 11 µM and a TGI (HOP-62 NSCLC) of 26.6 µM. For the same compound, the GI50 (LOX IMVI melanoma) was 3.31 µM, the TGI (LOX IMVI melanoma) was 12.5 µM and the GI50 (OVCAR-8 ovarian) was 9.17 µM. It also gave a TGI (OVCAR-8 ovarian) of 43.4 µM, a GI50 (SNB-75 CNS) of 13.1 µM and a TGI (SNB-75 CNS) of 52 µM. It also gave a GI50 (OVCAR-5 ovarian) of 12.4 µM and a TGI (OVCAR-5 ovarian) of 27.4 µM.
